Laboratory results taken from publication PMC10799935, “Discovery of a peripheral 5HT2A antagonist as a clinical candidate for metabolic dysfunction-associated steatohepatitis” (Nature Communications, 2024).
Values after ≈ are worked out from the molar mass of the structure shown. “Also recorded” adds a separate entry of the source. Where two headings read alike, the source gives them in different places.

Legend:
[1] = Hepatocyte stability test, monkey; type: in vitro ADME, cynomolgus monkey; settings: male, cryopreserved hepatocytes, pH 7.4, read-out: Hepatocyte stability (% remaining after 3 h)
Method: Hepatocyte incubations for the test compound (10 μM final concentration, n = 2 per each time point) were carried out in mouse, rat, dog, monkey and human cryopreserved hepatocytes, resuspended at a density of 0.5 million cells/ml of modified Krebs-Henseleit buffer (KHB). The information regarding the hepatocytes used in the experiment is as follows: liverPool® 10-donor mixed gender human (BioIVT, Cat.No. X008001, lot EAV), male cynomolgus monkey (BioIVT, Cat.No. M00305, lot COJ), male Beagle dog (BioIVT, Cat.No. M00205, lot USY), male Sprague Dawley rat (BioIVT, Cat.No. M00005, lot TQE) and male CD1 mouse (BioIVT, Cat.No.005052, lot LFF). In addition, the compound was also incubated with blank KHB. The final concentration of solvent (DMSO) was 0.1% of the final volume. The incubations were performed for 3 hours at 37°C and pH 7.4. Reactions were terminated at 0 and 180 minutes by the addition of 3 volumes of stop solution (acetonitrile/methanol (2:1, v/v) containing internal standard–diclofenac at 100 ng/ml). Samples (compound spiked buffer and compound spiked hepatocytes, as well as blank samples, i.e. hepatocytes with the same DMSO%) were then centrifuged and aliquots were transferred to 96-deep micronic tubes and frozen at -80 °C until LC-MS/MS analysis. […]

in vitro [2] = settings: mouse
[3] = male SD rats, oral [^14C]-11c 5 mg/kg
Method: Following blood collection, each anesthetized animal was euthanized by CO2 inhalation and carcasses were submerged in a dry ice/hexane bath. Frozen carcasses were stored at approximately -20 °C until processed for QWBA. Duplicate aliquots of approximately 0.1 g whole blood were weighed into combustion boats for analysis by LSC. Duplicate aliquots of approximately 0.1 mL plasma were weighed into scintillation vials and mixed with an appropriate volume of scintillation cocktail for analysis by LSC. The frozen carcasses were individually set in a mold, submerged in 5% (w/v) low viscosity carboxymethylcellulose (CMC), and embedded by placing the stage (mold) in a dry ice/hexane bath. […] Sagittal, 30-µm thick sections of the CMC-embedded carcasses, including QC standards, and of the CMC-embedded calibration standards were sectioned using a Vibratome 9800 Cryomicrotome (Vibratome; St. Louis, MO) with the temperature maintained at approximately -20 °C. […] The IPs were exposed for approximately 4 days while stored at room temperature in a lead-shielded box to minimize background radiation. Digitized phosphor images (autoradioluminograms) were generated in a dark room with subdued lighting using a GE Healthcare Typhoon 7000 Phosphor Imager (Raytest GmbH; Berlin, Germany) and analyzed using AIDA software (Raytest GmbH).

physchem = settings: pH 6.8, aqueous buffer
in vitro [4] = settings: human
STZ+HFD mice = STZ+HFD mice (modified STAM) NASH and liver fibrosis model; type: in vivo, mouse
Method: Mice were intraperitoneally injected with low-dose streptozotocin (40 mg/kg; 5 times) in 7-week-old mice. After injection with STZ, mice were fed an HFD for 16 weeks to induce NASH and liver fibrosis. After 16 weeks of an HFD, mice were fed a standard chow diet to mimic the NASH patient under […]
nine weeks by oral gavage (Reviewer-only data 4). […]
inflammation, hepatocyte ballooning, and total NAFLD activity score by the NASH CRN histological scoring system (Reviewer-only data 4B, C). […]
hepatic fibrosis stage similar to STZ+HFD mice treated with OCA (Reveiwer-only data 4D, E). STZ+HFD mice […]
function (Reviwer-only data 4F). […]
group (Reviewer-only data 4G). Furthermore, the expression of genes related to lipogenesis and fibrosis was reduced in the compound 11c-treated group in a dose-dependent manner (Reviewer-only data 4H, I). These […]
Reviewer-only Data 4. Compound 11c treatment with dietary modification ameliorates NASH and liver fibrosis in a dose-dependent manner. (A) Experimental scheme for in vivo efficacy of compound 11c in […]
(STZ+HFD mice. (B-I) STZ+HFD mice fed HFD for 16 weeks were switched to SCD for 9 weeks and were treated with vehicle, compound 11c, or OCA by daily oral gavage. (B) Representative liver histology by H&E staining […]
mg/kg. Scale bars, 100µm. […]
mice; n = 9 per group. (D) Representative liver histology by Masson’s trichrome staining from vehicle, […]
Scale bars, 100µm. (E) Fibrosis stage
(F) Serum AST and ALT levels; n = 9 per […]
group. (G) Serum TG levels and hepatic TG levels; n = 9 per group. (H) Relative mRNA expression of lipogenesis-related genes as assessed by qRT-PCR in the liver; n = 9 per group. (I) Relative mRNA expression of fibrosis-related genes as assessed by qRT-PCR in the liver; n = 9 per group. Data are expressed as the means ±SEM.
[…], **P<0.01, one-way ANOVA with post hoc Tukey’s test (C, E, F, G, H, I). […]
Representative liver histology by Masson’s trichrome staining and Sirius Red staining. Scale bars, 100µm. (E) […]
one-way ANOVA with post hoc Tukey’s test (C, E).
Comment 2: In "Methods", the author claims to use HEK293 cells (a type of cell derived from kidney embryos) for cell research, however, the data in Table 5 are the results of hepatocyte experiments. What happened? Response: We appreciate the Reviewer’s comment. HEK293 cells were used for inhibition assay (cell research), shown in Table 1-3 of the main manuscript, while, hepatic cell lines were used for chemical profiling and for “Hepatocyte stability” test, shown in Table 5 of the main manuscript. The “Selectivity” of Compound 11c for different 5HT subtypes is elucidated in response to Comment 6.
We have modified the Methods section to provide clarity.

## Cc1nc2n(c(=O)c1CCN1CCC(=C3c4ccc(Cl)cc4CCc4cccnc43)CC1)CCCC2O (stereo not drawn) [Compound 11c]
[1]
  remaining at 3 h, 10 μM: 84.6%
In vitro [2]
  IC50: > 100 µM
[3]; Adrenal gland
  AUC0-t (ng equiv./g): 7210 ng equiv./g
  Cmax (ng equiv./g): 1510 ng equiv./g
  Tissue: plasma ratio based on AUC0-t: 9.21
  Tmax: 6 h
[3]; Brain, BQL = below the lower limit of quantitation 148 ng equiv./g
  Cmax (ng equiv./g): BQL
[3]; Brain, BQL = below the lower limit of quantitation 148 ng equiv./g, listed as [^14C]-compound 11c
  Cmax (ng equiv./g): below the lower limit of quantitation
[3]; Heart
  AUC0-t (ng equiv./g): 1800 ng equiv./g
  Cmax (ng equiv./g): 369 ng equiv./g
  Tissue: plasma ratio based on AUC0-t: 2.30
  Tmax: 6 h
[3]; Kidney
  AUC0-t (ng equiv./g): 7860 ng equiv./g
  Cmax (ng equiv./g): 1840 ng equiv./g
  Tissue: plasma ratio based on AUC0-t: 10.0
  Tmax: 6 h
[3]; Large Intestine
  AUC0-t (ng equiv./g): 127000 ng equiv./g
  Cmax (ng equiv./g): 9800 ng equiv./g
  Tissue: plasma ratio based on AUC0-t: 162
  Tmax: 6 h
[3]; Liver
  AUC0-t (ng equiv./g): 15400 ng equiv./g
  Cmax (ng equiv./g): 2920 ng equiv./g
  Tissue: plasma ratio based on AUC0-t: 19.7
  Tmax: 6 h
[3]; Lung
  AUC0-t (ng equiv./g): 4290 ng equiv./g
  Cmax (ng equiv./g): 941 ng equiv./g
  Tissue: plasma ratio based on AUC0-t: 5.48
  Tmax: 6 h
[3]; Pancreas
  AUC0-t (ng equiv./g): 15400 ng equiv./g
  Cmax (ng equiv./g): 4330 ng equiv./g
  Tissue: plasma ratio based on AUC0-t: 19.7
  Tmax: 6 h
[3]; Plasma
  AUC0-t (ng equiv./g): 783 ng equiv./g
  Cmax (ng equiv./g): 225 ng equiv./g
  Tissue: plasma ratio based on AUC0-t: 1.00
  Tmax: 0.5 h
[3]; Small Intestine
  AUC0-t (ng equiv./g): 16600 ng equiv./g
  Cmax (ng equiv./g): 45000 ng equiv./g
  Tissue: plasma ratio based on AUC0-t: 21.2
  Tmax: 0.25 h
[3]; Spleen
  AUC0-t (ng equiv./g): 9520 ng equiv./g
  Cmax (ng equiv./g): 2290 ng equiv./g
  Tissue: plasma ratio based on AUC0-t: 12.2
  Tmax: 6 h
[3]; Stomach
  AUC0-t (ng equiv./g): 5130 ng equiv./g
  Cmax (ng equiv./g): 3240 ng equiv./g
  Tissue: plasma ratio based on AUC0-t: 6.55
  Tmax: 0.25 h
[3]; Whole Blood
  AUC0-t (ng equiv./g): 589 ng equiv./g
  Cmax (ng equiv./g): 158 ng equiv./g
  Tissue: plasma ratio based on AUC0-t: 0.75
  Tmax: 0.5 h
physchem
  solubility: 1300 µg/mL (≈ 2510 µM)
In vitro [4]
  IC50: > 100 µM
STZ+HFD mice
  Hepatic triglyceride levels: reduced
  plasma AST and ALT levels: decreased
STZ+HFD mice; 5 or 10 mg/kg daily oral gavage, nine weeks
  fibrosis stage and total NAFLD activity score: effectively improved; also recorded: better than obeticholic acid
STZ+HFD mice; 11c 5 or 10 mg/kg, OCA 10 mg/kg
  hepatic fibrosis stage: improvement
STZ+HFD mice; NASH CRN scoring
  hepatic steatosis, lobular inflammation, hepatocyte ballooning, and total NAFLD activity score: improved
STZ+HFD mice; dose-dependent manner
  expression of genes related to lipogenesis and fibrosis: reduced
